According to patent publication US11001590B2, “Pyrazolopyrimidine derivatives” (BAYER ANIMAL HEALTH GMBH, priority 2016, dated 2021):

Assays:
[1] = test system: Dirofilaria immitis microfilariae; assay: In vitro assay 3: Dirofilaria immitis microfilariae (DIROIM L1), motility; details: 72 h, reduction of motility vs negative control, 72 h incubation
[2] = test system: Cooperia curticei; assay: In vitro assay 5: Cooperia curticei (COOPCU), larval mortality; details: 120 h, read-out: activity (percentage of larval mortality)
Procedure: In Vitro Assay 5: Cooperia curticei (COOPCU)
Solvent: Dimethyl Sulfoxide
Approximately 40 nematode larvae (Cooperia curticei) are transferred into a test tube containing the compound solution.
After 5 days percentage of larval mortality is recorded. 100% efficacy means all larvae are killed; 0% efficacy means no larvae are killed.

[3] = test system: Litomosoides sigmodontis third-stage larvae; assay: In vitro assay 7: Litomosoides sigmodontis L3 (LTMOSI), motility; details: 72 h, reduction of motility vs negative control, 72 h incubation
[4] = log P by HPLC on reversed phase columns (Method L0; [a] acidic, [b] neutral range)
Procedure: Calibration was done with straight-chain alkan-2-ones (with 3 to 16 carbon atoms) with known log P values (measurement of log P values using retention times with linear interpolation between successive alkanones). Lambda-max-values were determined using UV-spectra from 200 nm to 400 nm and the peak values of the chromatographic signals.

[5] = target: C. elegans Slo-1a (Caenorhabditis elegans, UniProt Q95V25); assay: In vitro assay 1: C. elegans Slo-1a, action at a recombinant C. elegans CHO cell line (membrane potential measurement)
Sequence of C. elegans Slo-1a (Q95V25 whole entry): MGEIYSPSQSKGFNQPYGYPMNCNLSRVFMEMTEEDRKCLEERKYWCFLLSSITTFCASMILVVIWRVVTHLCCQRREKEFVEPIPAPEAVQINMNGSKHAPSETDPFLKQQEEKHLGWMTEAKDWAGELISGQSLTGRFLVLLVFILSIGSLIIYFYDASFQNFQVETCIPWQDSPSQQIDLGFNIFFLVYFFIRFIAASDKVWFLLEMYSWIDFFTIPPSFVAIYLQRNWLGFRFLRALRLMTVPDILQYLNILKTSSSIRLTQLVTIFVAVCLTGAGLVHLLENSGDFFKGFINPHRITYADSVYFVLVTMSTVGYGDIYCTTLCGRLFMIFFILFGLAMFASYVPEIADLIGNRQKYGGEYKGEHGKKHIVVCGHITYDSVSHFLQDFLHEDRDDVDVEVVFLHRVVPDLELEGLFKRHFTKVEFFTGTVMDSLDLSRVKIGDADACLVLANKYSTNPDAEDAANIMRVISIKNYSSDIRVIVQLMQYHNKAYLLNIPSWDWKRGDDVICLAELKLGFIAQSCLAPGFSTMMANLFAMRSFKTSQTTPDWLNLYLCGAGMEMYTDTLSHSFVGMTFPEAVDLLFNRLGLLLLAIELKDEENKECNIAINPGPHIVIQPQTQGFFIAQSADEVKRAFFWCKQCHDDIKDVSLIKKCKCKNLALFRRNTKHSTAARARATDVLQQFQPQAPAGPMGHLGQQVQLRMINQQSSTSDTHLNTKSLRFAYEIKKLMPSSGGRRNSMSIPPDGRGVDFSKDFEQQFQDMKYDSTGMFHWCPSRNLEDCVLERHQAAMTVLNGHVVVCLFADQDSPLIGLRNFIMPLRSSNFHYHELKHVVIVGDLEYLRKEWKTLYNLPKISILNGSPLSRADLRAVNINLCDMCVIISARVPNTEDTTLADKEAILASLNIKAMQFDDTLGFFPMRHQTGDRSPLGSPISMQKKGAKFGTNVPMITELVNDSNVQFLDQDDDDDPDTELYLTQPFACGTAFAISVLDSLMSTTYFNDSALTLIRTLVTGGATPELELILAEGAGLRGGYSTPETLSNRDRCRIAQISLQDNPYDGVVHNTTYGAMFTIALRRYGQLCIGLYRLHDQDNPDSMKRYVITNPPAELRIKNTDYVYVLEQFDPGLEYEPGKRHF

[6] = test system: Nippostrongylus brasiliensis; assay: In vitro assay 2: Nippostrongylus brasiliensis (NIPOBR), acetylcholine esterase readout; details: adult worms, read-out: activity (reduction of AChE compared to negative control); for inhibition at 10 µg/mL: 10 μg/ml (10 ppm); for inhibition at 1 µg/mL: 1 μg/ml (1 ppm)
Procedure: In Vitro Assay 2: Nippostronqylus Brasiliensis (NIPOBR)
Adult Nippostrongylus brasiliensis were washed with saline buffer containing 100 U/ml penicillin, 0.1 mg/ml streptomycin and 2.5 μg/ml amphotericin B. Test compounds were dissolved in DMSO and worms were incubated in medium in a final concentration of 10 μg/ml (10 ppm) respectively 1 μg/ml (1 ppm). An aliquot of the medium was used to determine the acetylcholine esterase activity in comparison to a negative control. The principle of measuring acetylcholine esterase as readout for anthelmintic activity was described in Rapson et al (1986) and Rapson et al (1987).

[7] = test system: Dirofilaria immitis third-stage larvae; assay: In vitro assay 4: Dirofilaria immitis (DIROIM L4), motility of larvae; details: 72 h

Row | Structure (SMILES) | EC50 [1] [µg/mL] | mortality at 20 ppm [2] [%] | EC50 [3] [µg/mL] | chromatographic logP [4] | EC50 [5] [nM] | inhibition at 10 µg/mL [6] [%] | EC50 [7] [µg/mL] | inhibition at 1 µg/mL [6] [%]
1 | Cc1nn2c(C(C)C)c(C(=O)N[C@H]3CCOc4ccccc43)cnc2c1-c1cccc(C(F)(F)F)c1 [Example 6] | < 1 | 80 | < 1 | 5.03 | 12.6 | – | – | –
2 | Cc1nn2c(C(C)C)c(C(=O)N[C@H]3CCOc4ccccc43)cnc2c1-c1c(F)cccc1F [Example 96] | < 0.1 | – | < 0.1 | 4.13 | 3.98 | > 80 | < 0.1 | –
3 | Cc1nn2c(C(C)C)c(C(=O)N[C@H]3CCc4ccccc43)cnc2c1-c1cc(Cl)c(F)c(Cl)c1 [Example 127] | < 0.1 | – | < 0.1 | 5.91 | 10 | > 80 | < 0.1 | –
4 | Cc1nn2c(C(C)C)c(C(=O)N[C@H]3CCCc4ccccc43)cnc2c1-c1cc(Cl)c(F)c(Cl)c1 [Example 128] | < 0.1 | – | < 0.1 | 6.26 | 12.6 | > 80 | < 0.1 | –
5 | Cc1nn2c(C(C)C)c(C(=O)N[C@H]3CCOc4ccccc43)cnc2c1-c1c(F)cccc1Cl [Example 130] | < 0.1 | – | < 0.1 | 4.44 | 3.98 | > 80 | < 0.1 | –
6 | Cc1nn2c(C(C)C)c(C(=O)N[C@H]3CCOc4ccccc43)cnc2c1-c1cccc(F)c1F [Example 136] | < 0.1 | – | < 0.1 | 4.34 | 6.31 | > 80 | < 0.1 | > 80
7 | Cc1nn2c(C(C)C)c(C(=O)N[C@H]3CCc4ccccc43)cnc2c1-c1cccc(F)c1F [Example 141] | < 0.1 | – | < 0.1 | 4.6 | 7.94 | > 80 | < 0.1 | –
8 | Cc1nn2c(C(C)C)c(C(=O)N[C@H]3CCOc4ccccc43)cnc2c1-c1cc(Cl)cc(Cl)c1 [Example 152] | < 0.1 | – | < 0.1 | 5.84 | 20 | > 80 | < 1 | > 80
9 | Cc1nn2c(C(C)C)c(C(=O)N[C@H]3CCOc4ccccc43)cnc2c1-c1ccc(F)c(F)c1F [Example 166] | < 0.1 | – | < 0.1 | 4.54 | 1.58 | > 80 | < 0.1 | –
10 | Cc1nn2c(C(C)C)c(C(=O)N[C@H]3CCOc4ccccc43)cnc2c1-c1cccc(Cl)c1Cl [Example 170] | < 0.1 | – | < 0.1 | 4.85 | 2 | > 80 | < 0.1 | –
11 | COc1cccc(-c2c(C)nn3c(C(C)C)c(C(=O)N[C@H]4CCOc5ccccc54)cnc23)c1F [Example 184] | < 0.1 | – | < 0.1 | 2.84 | 3.16 | > 80 | < 0.1 | –
12 | Cc1nn2c(C(C)C)c(C(=O)N[C@H]3CCOc4ccccc43)cnc2c1-c1ccc(F)c(Cl)c1 [Example 186] | < 0.1 | – | < 0.1 | 5.01 | 15.8 | > 80 | < 0.1 | –
13 | Cc1nn2c(C(C)C)c(C(=O)N[C@H]3CCOc4ccccc43)cnc2c1-c1cccc(Cl)c1F [Example 189] | < 0.1 | – | < 0.1 | 4.72 | 1.26 | > 80 | < 0.1 | –
14 | Cc1nn2c(C(C)C)c(C(=O)N[C@H]3CCOc4ccccc43)cnc2c1-c1cc(Cl)c(F)c(Cl)c1 [Example 194] | < 0.1 | – | < 0.1 | 5.65 | 12.6 | > 80 | < 0.1 | > 80
15 | Cc1nn2c(C(C)C)c(C(=O)N[C@H]3CCOc4ccccc43)cnc2c1-c1ncc(Cl)cc1Cl [Example 208] | < 0.1 | – | < 0.1 | 4.27 | 1.58 | > 80 | < 0.1 | > 80
16 | Cc1nn2c(C(C)C)c(C(=O)N[C@H]3CCOc4ccccc43)cnc2c1-c1ccc(F)c(Cl)c1F [Example 213] | < 0.1 | – | < 0.1 | 4.8 | 1.58 | > 80 | < 0.1 | –

Row | Structure (SMILES) | EC50 [1] [µg/mL] | mortality at 20 ppm [2] [%] | EC50 [3] [µg/mL] | chromatographic logP [4] | EC50 [5] [nM] | inhibition at 10 µg/mL [6] [%] | EC50 [7] [µg/mL] | inhibition at 1 µg/mL [6] [%]
17 | Cc1nn2c(C(C)C)c(C(=O)N[C@H]3CCOc4ccccc43)cnc2c1-c1c(F)cc(F)cc1F [Example 236] | < 1 | – | < 0.1 | 4.3 | 2 | > 80 | < 0.1 | > 80
18 | Cc1nn2c(C(C)C)c(C(=O)N[C@H]3CCOc4ccccc43)cnc2c1-c1cc(Cl)cc(C(F)(F)F)c1 [Example 240] | < 1 | 90 | – | 5.65 | 5.01 | > 80 | – | > 80
19 | COc1cc(-c2c(C)nn3c(C(C)C)c(C(=O)N[C@H]4CCOc5ccccc54)cnc23)cc(F)c1F [Example 241] | < 1 | – | < 0.1 | 4.6 | 6.31 | > 80 | < 0.1 | > 80
20 | Cc1nn2c(C(C)C)c(C(=O)N[C@H]3CCOc4ccccc43)cnc2c1-c1c(F)cc(Cl)cc1F [Example 246] | < 0.1 | – | < 0.1 | 4.82 | 6.31 | > 80 | < 0.1 | > 80
21 | Cc1nn2c(C(C)C)c(C(=O)N[C@H]3CCOc4ccccc43)cnc2c1-c1c(Cl)ccc(F)c1F [Example 258] | < 1 | – | < 0.1 | 4.46 | 1.58 | > 80 | < 0.1 | > 80
22 | Cc1nn2c(C(C)C)c(C(=O)N[C@H]3CCc4ccccc43)cnc2c1-c1cccc(N(C)C)c1 [Example 299] | < 0.1 | 80 | – | 3.9 | 15.8 | – | – | –
23 | Cc1nn2c(C(C)C)c(C(=O)N[C@H]3CCc4ccccc43)cnc2c1-c1cc(Cl)cc(C(F)(F)F)c1 [Example 317] | < 1 | – | < 0.1 | 6.07 | 15.8 | > 80 | < 0.1 | –
24 | COc1cc(Cl)cc(-c2c(C)nn3c(C(C)C)c(C(=O)N[C@H]4CCOc5ccccc54)cnc23)c1 [Example 403] | < 0.1 | – | < 0.1 | 4.96 | 158 | > 80 | < 0.1 | –
25 | Cc1nn2c(C3CC3)c(C(=O)N[C@H]3CCc4ccccc43)cnc2c1-c1c(F)cccc1Cl [Example 442] | < 0.1 | – | < 0.1 | 3.89 | 2 | > 80 | < 0.1 | –
26 | Cc1nn2c(C3CC3)c(C(=O)N[C@H]3CCOc4ccccc43)cnc2c1-c1cccc(N(C)C)c1 [Example 453] | < 1 | 80 | – | 2.72 | 2.51 | > 80 | – | –
27 | Cc1nn2c(C3CC3)c(C(=O)N[C@H]3CCOc4ccccc43)cnc2c1-c1c(Cl)cccc1Cl [Example 467] | < 0.1 | – | < 0.1 | 3.88 | 0.398 | > 80 | < 0.1 | –
28 | Cc1nn2c(C3CC3)c(C(=O)N[C@H]3CCOc4ccccc43)cnc2c1-c1ccc(F)cc1Cl [Example 475] | < 0.1 | – | < 0.1 | 3.79 | 2 | – | < 0.1 | > 80
29 | Cc1nn2c(N3CCOCC3)c(C(=O)N[C@H]3CCOc4ccccc43)cnc2c1-c1cc(Cl)cc(Cl)c1 [Example 516] | < 0.1 | – | – | 3.99 | 5.01 | > 80 | < 0.1 | > 80
30 | COc1c(F)ccc(-c2c(C)nn3c(N4CCOCC4)c(C(=O)N[C@H]4CCOc5ccccc54)cnc23)c1F [Example 533] | < 0.1 | – | < 0.1 | 4.46 | 1.26 | – | < 0.1 | > 80
31 | Cc1nn2c(C3CC3)c(C(=O)N[C@H]3CCOc4ccccc43)cnc2c1-c1cc(Cl)cc(Cl)c1Cl [Example 538] | < 0.1 | – | < 0.1 | 4.8 | 0.316 | – | < 0.1 | > 80
